The source of these data is the NIST ThermoML archive (doi:10.1016/j.jct.2011.07.003).

Values joined by “and” are separate entries in the source; they are usually repeats but may differ in a detail not shown here. Equal entries are not always repeated. ± gives the expanded uncertainty stated by the source.

The conditions of the data set: Calculated from knudsen effusion weight loss.

A word on the vapor or sublimation pressure: it is the equilibrium pressure above the liquid or solid. On to `c1ccc2c(c1)ccc1ccccc12` [phenanthrene], for which the “vapor or sublimation pressure” value runs as follows: (295.73 K, Crystal 2) 1.4e-05 ± 1e-06 kPa and 1.5e-05 ± 1e-06 kPa; (302.13 K, Crystal 2) 3.2e-05 ± 2e-06 kPa and 3.1e-05 ± 2e-06 kPa; (307.66 K, Crystal 2) 6.1e-05 ± 3e-06 kPa and 6.4e-05 ± 3e-06 kPa and 6.2e-05 ± 3e-06 kPa; (313.1 K, Crystal 2) 0.000118 ± 6e-06 kPa and 0.000119 ± 6e-06 kPa; (318.47 K, Crystal 2) 0.000208 ± 1e-05 kPa [middle of 6 runs]; (323 K, Crystal 2) 0.000341 ± 1.7e-05 kPa [middle of 5 runs]. Also, the “vapor or sublimation pressure” value runs as follows: (328.2 K, Crystal 2) 0.00059 ± 3e-05 kPa [middle of 6 runs]; (332.95 K, Crystal 2) 0.000959 ± 4.8e-05 kPa [middle of 6 runs].

For `c1ccc2cc3ccccc3cc2c1` [anthracene], the “vapor or sublimation pressure” value (321.79 K, Crystal) is 1.7e-05 ± 1e-06 kPa and 1.8e-05 ± 1e-06 kPa and 1.9e-05 ± 1e-06 kPa; the “vapor or sublimation pressure” value (328.88 K, Crystal) was 3.9e-05 ± 2e-06 kPa and 3.7e-05 ± 2e-06 kPa and 4e-05 ± 2e-06 kPa; the “vapor or sublimation pressure” value (337.2 K, Crystal) was 9.3e-05 ± 5e-06 kPa [middle of 7 runs]; the “vapor or sublimation pressure” value (345.77 K, Crystal) was 0.000236 ± 1.2e-05 kPa [middle of 6 runs]; the “vapor or sublimation pressure” value (352.86 K, Crystal) is 0.000473 ± 2.4e-05 kPa [middle of 6 runs]; the “vapor or sublimation pressure” value (360.64 K, Crystal) is 0.000988 ± 4.9e-05 kPa [middle of 5 runs].
